Source: ChEMBL document CHEMBL1135863, “Antitumor agents. Part 215: antitubulin effects of cytotoxic B-ring modified allocolchicinoids” (Bioorg Med Chem Lett, 2002)

Assays:
A9 [1] = assay: Cytotoxicity against Beta- tubulin mutant expressing […] cell line of humans was tested; type: functional, cell-based; details: Homo sapiens
1A9 = assay: Cytotoxicity against ovarian cancer cell line (1A-9) of humans was determined; type: functional, cell-based; details: Homo sapiens
KB [2] = assay: The compound was tested for its cytotoxic concentration required to inhibit the replication of human tumor nasopharynx (KB-VIN) cell lines which is drug resistant; type: functional, cell-based
KB [3] = assay: The compound was tested for its cytotoxic concentration required to inhibit the replication of human tumor nasopharynx (KB) cell lines; type: functional, cell-based
A9 [4] = assay: Percentage inhibition at higher concentration (100 nM) against Beta- tubulin mutant expressing […] cell line; type: functional, Homo sapiens

SMILES | IC50 (A9 [1]) [nM] | IC50 (1A9) [nM] | IC50 (KB [2]) [nM] | IC50 (KB [3]) [nM] | inhibition at 0.1 µM (A9 [4]) [%]
COc1ccc2c(c1)C=CCc1cc(OC)c(OC)c(OC)c1-2 | 78 | 60 | 68 | 60 | 
COc1ccc2c(c1)[C@@H](NC(=O)CCl)CCc1cc(OC)c(OC)c(OC)c1-2 | 13.8 | 2.7 | 9.1 | 12 | 
COc1ccc2c(c1)[C@@H]1O[C@@H]1Cc1cc(OC)c(OC)c(OC)c1-2 | > 100 | 82 | 62 | 62 | 17
COc1cc2c(c(OC)c1OC)-c1ccc(OC)c(=O)cc1[C@@H](NC(C)=O)CC2 [COLCHICINE] | 13.8 | 11.9 | > 100 | 11.9 | 
